According to patent US7329651B2 (priority 2001, dated 2008):
Read-outs that look alike come from different tables or passages of the source.

Columns and labels:
CB1 cannabinoid receptor = molecular target: T1, CB1 cannabinoid receptor (Rattus norvegicus, UniProt P20272); experiment: CB1 receptor binding, [3H] CP-55,940 displacement, rat forebrain membranes
T1 construct: membranes were prepared from rat forebrain membranes; from tissue; host or cells: rat forebrain
Method: (§1) The prepared cannabinoid compounds were tested for CB2 receptor binding affinity and for CB1 receptor affinity (to determine selectivity for the CB2 receptor). As used herein, “binding affinity” is represented by the IC50 value which is the concentration of an analog required to occupy the 50% of the total number (Bmax) of the receptors. The lower the IC50 value, the higher the binding affinity. […] The binding affinities (Ki) are expressed in nanomoles (nM).
For the CB1 receptor binding studies, membranes were prepared from rat forebrain membranes according to the procedure of P. R. Dodd et al; A Rapid Method for Preparing Synaptosomes: Comparison with Alternative Procedures, Brain Res., 107-118 (1981). The binding of the novel analogues to the CB1 cannabinoid receptor was assessed as described in W. A. Devane et al; Determination and Characterization of a Cannabinoid Receptor in a Rat Brain, Mol. Pharmacol., 34, 605-613 (1988) and A. Charalambous et al; “5′-azido ^8−THC: A Novel Photoaffinity Label for the Cannabinoid Receptor”, J. Med. Chem., 35, 3076-3079 (1992) with the following changes. The above articles are incorporated by reference herein.
Membranes, previously frozen at −80° C., were thawed on ice. To the stirred suspension was added three volumes of TME (25 mM Tris-HCl buffer, 5 mM MgCl2 and 1 mM EDTA) at a pH 7.4. The suspension was incubated at 40° C. for 30 min. At the end of the incubation, the membranes were pelleted and washed three times with TME.
(§2) The treated membranes were subsequently used in the binding assay described below. Approximately 30 μg of membranes were incubated in silanized 96-well microtiter plate with TME containing 0.1% essentially fatty acid-free bovine serum albumin (BSA), 0.8 nM [^3H] CP-55,940, and various concentrations of test materials at 30° C. for 1 hour. The samples were immediately filtered using a Packard Filtermate 196 and Whatman GF/C filterplates and washed with wash buffer (TME) containing 0.5% BSA. Radioactivity was detected using MicroScint 20 scintillation cocktail added directly to the dried filterplates, and the filterplates were counted using a Packard Instruments Top-Count. Nonspecific binding was assessed using 100 nM CP-55,940. Data collected from three independent experiments performed with duplicate determinations was normalized between 100% and 0% specific binding for [^3H] CP-55,940, determined using buffer and 100 nM CP-55,940. The normalized data was analyzed using a 4-parameter nonlinear logistic equation to yield IC50 values. Data from at least two independent experiments performed in duplicate was used to calculate IC50 values which were converted to Ki values using the using the assumptions of Cheng et al; “Relationship Between the Inhibition Constant (Ki) and the concentration of Inhibitor which causes 50% Inhibition (IC50) of an Enzymatic Reaction”, Biochem. Pharmacol., 22, 3099-3102, (1973), which is incorporated by reference herein.

CB2 receptor = molecular target: T2, CB2 receptor (Mus musculus, UniProt P47936); experiment: biochemical; type: binding; details: for Selectivity for CB2: ratio of CB1 Ki to CB2 Ki
T2 construct: membranes were prepared from frozen mouse spleen; from tissue; host or cells: mouse spleen
T2 sequence (P47936 whole entry): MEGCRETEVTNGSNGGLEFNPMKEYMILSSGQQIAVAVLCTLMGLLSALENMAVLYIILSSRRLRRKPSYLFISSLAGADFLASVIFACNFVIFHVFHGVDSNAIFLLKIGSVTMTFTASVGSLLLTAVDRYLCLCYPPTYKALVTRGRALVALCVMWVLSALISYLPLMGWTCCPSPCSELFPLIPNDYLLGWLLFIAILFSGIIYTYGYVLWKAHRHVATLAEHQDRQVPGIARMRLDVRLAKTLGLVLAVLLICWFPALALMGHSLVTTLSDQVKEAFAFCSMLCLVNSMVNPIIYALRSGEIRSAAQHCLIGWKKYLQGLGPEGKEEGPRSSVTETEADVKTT
Method: as §1, §2
For the CB2 receptor binding studies, membranes were prepared from frozen mouse spleen essentially according to the procedure of P. R. Dodd et al; “A Rapid Method for Preparing Synaptosomes: Comparison with Alternative Procedures”, Brain Res., 226, 107-118 (1981) which is incorporated by reference herein. Silanized centrifuge tubes were used throughout to minimize receptor loss due to adsorption. The CB2 binding assay was conducted in the same manner as the CB1 binding assay. The binding affinities (Ki) were also expressed in nanomoles (nM).

CB2 = CB2 (Homo sapiens, UniProt P34972); experiment: Intracellular cyclic AMP levels, comparative protein binding assay (adenylate cyclase inhibition); type: cell-based; details: intracellular cAMP
Chain of CB2 (P34972 whole entry, species assumed, the tested form may be a part): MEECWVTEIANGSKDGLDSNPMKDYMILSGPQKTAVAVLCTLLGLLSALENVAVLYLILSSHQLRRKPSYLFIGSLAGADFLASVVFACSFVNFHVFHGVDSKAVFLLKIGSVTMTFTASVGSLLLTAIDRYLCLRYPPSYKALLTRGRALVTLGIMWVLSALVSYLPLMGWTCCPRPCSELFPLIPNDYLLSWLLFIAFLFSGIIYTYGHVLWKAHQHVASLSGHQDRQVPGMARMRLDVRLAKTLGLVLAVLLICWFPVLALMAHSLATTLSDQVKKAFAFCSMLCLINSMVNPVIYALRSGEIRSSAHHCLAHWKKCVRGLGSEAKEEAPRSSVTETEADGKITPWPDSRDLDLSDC
Method: Intracellular cyclic AMP (cAMP) levels are measured with a comparative protein binding assay (materials available from Diagnostic Products, Inc. of Carlsbad, Calif.) generally according to the method described in Tao, Q. and M. E. Abood; “Mutation of a highly conserved aspartate residue in the second transmembrane domain of the cannabinoid receptors, CB1 and CB2, disrupts G-protein coupling”, J Pharmacol Exp Ther, 1998, 285(2): pp. 651-658, which is incorporated by reference herein. […] The IC50 value for Compound 2 was 8 nM.

[1] = rat forebrain membranes, 0.8 nM [3H] CP-55,940, read-out: Ki(nM) CB1
[2] = mouse spleen membranes, [3H] CP-55,940, read-out: Ki(nM) CB2

T1 sequence (P20272 whole entry): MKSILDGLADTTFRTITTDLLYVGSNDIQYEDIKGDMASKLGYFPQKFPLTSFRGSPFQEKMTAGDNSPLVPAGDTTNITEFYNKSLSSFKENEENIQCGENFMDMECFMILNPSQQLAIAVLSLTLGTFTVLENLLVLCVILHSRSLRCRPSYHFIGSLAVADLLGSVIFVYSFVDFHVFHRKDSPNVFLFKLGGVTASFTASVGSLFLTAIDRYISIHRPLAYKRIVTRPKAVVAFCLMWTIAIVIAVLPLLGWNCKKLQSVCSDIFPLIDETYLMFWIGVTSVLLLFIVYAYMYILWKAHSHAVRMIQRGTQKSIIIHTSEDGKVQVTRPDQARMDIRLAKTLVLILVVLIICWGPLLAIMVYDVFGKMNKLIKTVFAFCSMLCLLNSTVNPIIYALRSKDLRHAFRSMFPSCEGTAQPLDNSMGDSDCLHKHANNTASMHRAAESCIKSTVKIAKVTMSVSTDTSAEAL

Compound	Ki (CB1 cannabinoid receptor; [1]) [nM]	Ki (CB2 receptor; [2]) [nM]	Selectivity for CB2 (CB2 receptor)	melting point [°C]	further results
CCOC(=O)C1=NN(c2cccc3ccccc23)C(C(=O)OCC)=NN1c1ccccc1 [compound 24, 1-Phenyl-4-α-naphthalenyl-1,4-dihydro-1,2,4,5-tetrazine-3,6-dicarboxylic acid diethyl ester]	7360	182	40	–	–
CC(=O)C1=NN(c2ccccc2)C(C(C)=O)=NN1c1ccccc1 [compound 4, 1,4-Diphenyl-1,4-dihydro-3,6-diacetyl-1,2,4,5-tetrazine]	10000	–	1	–	Ki (CB2 receptor): 10000 nM
CCOC(=O)C1=NN(c2ccccc2)C(C(=O)N2CCCCC2)=NN1c1ccccc1 [compound 13, 1,4-Diphenyl-1,4-dihydro-1,2,4,5-tetrazine-3-carboxylic N-isopinocampheyl amide-6-carboxylic ethyl ester]	5040	255	20	–	–
CCOC(=O)c1nnc(C(=O)OCC)c2c1[nH]c1ccccc12	–	–	–	151 to 152	–
COC(=O)C1=NN(c2ccccc2)C(C(=O)OC)=NN1c1ccccc1 [compound 1, Dimethyl 1,4-diphenyl-1,4-dihydro-1,2,4,5-tetrazine-3,6-dicarboxylate]	31000	381	81	171 to 172	–
CCOC(=O)C1=NN(c2ccc(Br)cc2)C(C(=O)OCC)=NN1c1ccc(Cl)cc1 [compound 23]	542	30	18	130 to 131	–
CNC(=O)C1=NN(c2ccccc2)C(C(=O)NC)=NN1c1ccccc1 [compound 6]	66000	–	1	–	–
NC(=O)C1=NN(c2ccccc2)C(C(N)=O)=NN1c1ccccc1 [compound 5]	10000	10000	1	–	–
CCOC(=O)C1=NN(c2ccc(Cl)cc2)C(C(=O)OCC)=NN1c1ccccc1 [compound 22, 1-(4-chlorophenyl)-4-phenyl-1,4-dihydro-1,2,4,5-tetrazine-3,6-dicarboxylic acid diethyl ester]	1500	43	34	–	–
O=C(C1=NN(c2ccccc2)C(C(=O)N2CCCCC2)=NN1c1ccccc1)N1CCCCC1 [compound 9]	9990	221	42	–	–
CN(C)C(=O)C1=NN(c2ccccc2)C(C(N)=O)=NN1c1ccccc1 [compound 6, N,N-Dimethyl-1,4-diphenyl-1,4-dihydro-1,2,4,5-tetrazine-3,6-dicarboxylic di-amide]	–	–	–	243 to 243.5	–
CCOC(=O)C1=NN(c2ccc(Cl)cc2)C(C(=O)OCC)=NN1c1ccc(Cl)cc1 [compound 16, 1,4-Di-(4-chlorophenyl)-1,4-dihydro-1,2,4,5-tetrazine-3,6-dicarboxylic acid diethyl ester]	208	48	4.3	–	–
CCNC(=O)C1=NN(c2ccccc2)C(C(=O)NCC)=NN1c1ccccc1 [compound 7]	100000	–	1	–	–
CCOC(=O)C1=NN(c2cccc3ccccc23)C(C(=O)OCC)=NN1c1cccc2ccccc12 [compound 20, 1,4-Di-(α-naphthalene)-1,4-dihydro-1,2,4,5-tetrazine-3,6-dicarboxylic acid diethyl ester]	1e+06	1910	524	129 to 130	–
CCCOC(=O)C1=NN(c2ccccc2)C(C(=O)OCCC)=NN1c1ccccc1 [compound 3, Dipropyl-1,4-diphenyl-1,4-dihydro-1,2,4,5-tetrazine-3,6-dicarboxylate]	618	23.3	27	82.5 to 83	–
CC1C(NC(=O)C2=NN(c3ccccc3)C(C(=O)NC3CC4CC(C3C)C4(C)C)=NN2c2ccccc2)CC2CC1C2(C)C (stereo not shown) [compound 11]	–	–	1	–	Ki (CB1 cannabinoid receptor): 100000 nM
N,N-Dibutyl-1,4-diphenyl-1,4-dihydro-1,2,4,5-tetrazine-3,6-dicarboxylic di-amide [compound 8]	16000	692	23	–	–
CCN(CC)C(=O)C1=NN(c2ccccc2)C(C(N)=O)=NN1c1ccccc1 [compound 7, N,N-Diethyl-1,4-diphenyl-1,4-dihydro-1,2,4,5-tetrazine-3,6-dicarboxylic di-amide]	–	–	–	239 to 240	–
CCOC(=O)C1=NN(c2ccccc2)C(C(=O)NC2CC3CC(C2C)C3(C)C)=NN1c1ccccc1 (stereo not shown) [compound 14, 1,4-Diphenyl-1,4-dihydro-1,2,4,5-tetrazine-3-carboxylic N-piperidinyl amide-6-carboxylic acid ethyl ester]	–	805	2.6	–	Ki (CB1 cannabinoid receptor): 2050 nM
CCOC(=O)C1=NN(c2ccc(OC)cc2)C(C(=O)OCC)=NN1c1ccc(OC)cc1 [compound 18]	4590	72	64	–	–
CCOC(=O)C1=NN(c2ccc(Br)cc2)C(C(=O)OCC)=NN1c1ccc(Br)cc1 [compound 17]	350	200	–	–	–
CC(CO)NC(=O)C1=NN(c2ccccc2)C(C(=O)NC(C)CO)=NN1c1ccccc1 (stereo not shown) [compound 10]	100000	–	1	262 to 263	–
CCOC(=O)C1=NN(c2ccccc2)C(C(C)=O)=NN1c1ccccc1 [compound 12, 1,4-Diphenyl-1,4-dihydro-1,2,4,5-tetrazine-3-aceto-6-carboxylic acid ethyl ester]	7700	327	24	–	–
CCOC(=O)C1=NN(C(=O)c2ccccc2)C(C(=O)OCC)=NN1C(=O)c1ccccc1 [compound 21, 1,4-Dibenzoyl-1,4-dihydro-1,2,4,5-tetrazine-3,6-dicarboxylic acid diethyl ester]	100000	–	1	133.5 to 134	–
CCOC(=O)C1=NN(c2ccc(Cl)cc2Cl)C(C(=O)OCC)=NN1c1ccc(Cl)cc1Cl [compound 19]	10000	10000	1	–	–
CCOC(=O)C1=NN(C(=O)c2ccccc2I)C(C(=O)OCC)=NN1C(=O)c1ccccc1I	–	–	–	186 to 187	–
CCOC(=O)C1=NN(c2ccccc2)C(C(=O)OCC)=NN1c1ccccc1 [compound 2]	1670	19	88	–	effect on formation of cyclic AMP (CB2; adenylate cyclase): reduce formation of cyclic AMP by inhibiting adenylate cyclase; IC50 (CB2; read-out: IC50 value, reduction of cyclic AMP formation): 0.008 µM
CCOC(=O)C1=NN(c2ccc([N+](=O)[O-])cc2)C(C(=O)OCC)=NN1c1ccc([N+](=O)[O-])cc1 [compound 15]	–	–	–	–	Ki (CB1 cannabinoid receptor): 100000 nM
